Data reported in patent publication US7507792B2, “MDA-7 proteins and methods of use thereof” (The Trustees of Columbia University In The City of New York, priority 1993, dated 2009).
“Also recorded” adds a separate entry of the source.

Legend:
[1] = system: mda-4; assay: mda-4 expression (Northern blotting); type: cell-based, human; details: H0-1; 96 hours; doses of FIG. 15 legend
Protocol: (§1) The mass excision of the library was performed using ExAssist helper phage as described above. The SOLR strain of Escherichia coli and cDNA phagemids were mixed at 37° C. for 15 min and plated onto LB plates containing ampicillin and IPTG/X-gal. White colonies were chosen at random, isolated and grown in LB medium. Plasmid minireps and restriction enzyme digestions were performed to confirm the presence of inserts. The inserts were isolated and used as robes for Northern blotting analysis (5,25). […] Radiolabeled probes were generated by random oligonucleotide priming (25). Prehybridization, hybridization, posthybridization washes, and autoradiography were performed as described (5,18,25).

[2] = system: mda-6; assay: mda-6 expression (Northern blotting); type: cell-based, human; details: H0-1; 96 hours; doses of FIG. 15 legend
Protocol: as §1
Total cytoplasmic RNA was isolated and Northern blotting hybridization was performed as described (Reddy et al., 1991; Su et al., 1991; Jiang et al., 1992). Ten μg of RNA was denatured with glyoxal/DMSO, electrophoresed on 1.0% agarose gels, transferred to nylon membranes and hybridized to a ^32P-labeled p53 probe (Baker et al., 1990). The nylon membrane was stripped and hybridized to a ^32P-labeled mda-6 probe (Jiang and Fisher, 1993) and then after a second stripping the membrane was hybridized to a ^32P-labeled rat GAPDH probe (Fort et al., 1985), as described previously (Reddy et al., 1991; Su et al., 1991; Jiang et al., 1992). Following hybridization, the filters were washed and exposed for autoradiography (Reddy et al., 1991; Su et al., 1991; Jiang et al., 1992). mda-6 and GAPDH gene expression were also determined by reverse transcription-polymerase chain reaction (RT-PCR) as described (Adollahi et al., 1991; Lin et al., 1994; Jiang et al., 1994b). Total cytoplasmic RNA was treated with 0.5 units DNase (Boehringer-Mannheim Biochemicals)/μg RNA in 15% glycerol, 10 mM Tris, pH 7.5, 2.5 mM MgCl2, 0.1 mM EDTA, 80 mM KCl, 1 mM CaCl2 and 1 unit/ml RNasin (Promega) at 30° C. for 10 min. RNA was extracted with phenol-chloroform, precipitated with sodium acetate/ethanol and RNA pellets were resuspended in diethylpyrocarbonate-treated H2O. One μg of total RNA was reverse transcribed with 200 units of murine leukemia virus reverse transcriptase (Bethesda Research Laboratories) in 20 μl containing 1 mM deoxyribonucleotide triphosphates, 4 mM MgCl2, 10 mM Tris, pH 8.3, 50 mM KCl, 0.001% gelatin and 0.2 μg oligo-dT primer. Samples were adjusted to 100 μl with buffer containing 0.2 mM deoxyribonucleotide triphosphates, 2 mM MgCl2, 10 mM Tris, pH 8.3, 50 mM KCl and 0.001% gelatin. Fifty pmol of each primer, 1.5 units Taq DNA polymerase (Perkin-Elmer Cetus) were added and samples were covered with mineral oil, heated at 95° C. for 5 min and subjected to 25 cycles of PCR in a Perkin-Elmer Thermal Cycler using 1 min denaturation at 94° C., 2 min annealing at 55° C. and 3 min polymerization at 72° C. After extraction with chloroform, 20 μl of products were electrophoresed, blotted onto nylon filters and hybridized with an mda-6 or GAPDH specific probe. The mda-6 primers were 5′ to 3′ […] (SEQ ID NO:26) and […] (SEQ ID NO:27)(corresponding to nt 1527 to 1546) (GenBank accession number U09579); and the GAPDH primers were 5′ to 3′ […] (SEQ ID NO:28)and […] (SEQ ID NO:29)(corresponding to nt 1070 to 1053) (Tokunaga et al., 1987).

[3] = system: H0-1 cells; assay: Northern blotting analysis of steady-state mRNA levels; type: cell-based, human; details: FIG. 1 concentrations
Protocol: Steady-state levels of specific mRNAs were determined by Northern blotting analysis of total RNA probed with appropriate ^32P-labeled gene probes as described previously (14-16). RNAs were analyzed from cells treated with inducer for 24 hours, treated for 24 hours with inducer followed by growth for 72 hours in the absence of inducer, or treated continuously for 96 hours with the inducer. The concentration of inducing compounds used were the same as those used for growth studies. The effect of conditioned medium on gene expression changes was determined by treating H0-1 cells for 24 hours with a 1:2 dilution of conditioned medium (equal volumes of conditioned medium and DMEM supplemented with 10% fetal bovine serum (DMEM-10) or for 96 hours with a 1:4 dilution of conditioned medium (1 vol. of conditioned medium to 3 vol. of DMEM-10). The probes used in the present study were specific for β-actin (17), γ-actin (17), c-jun (18), c-myc (19), fibronectin (20), gro/MGSA (21), HLA Class I antigen (22), HLA Class II antigen (HLA-DRβ) (22), α5 integrin (23), β1 integrin (24), ISG-15 (25), ISG-54 (25), jun-B (26), and tenascin (27). Northern blots were also probed with a ^32P-labeled GAPDH gene (15) to verify similar mRNA expression under the various experimental conditions. Following hybridization, the filters were washed and exposed for autoradiography.

[4] = system: mda-9; assay: mda-9 expression (Northern blotting); type: cell-based, human; details: H0-1; 96 hours; doses of FIG. 15 legend
Protocol: as §1

[5] = system: H0-1 human melanoma cell line; assay: 96-h growth suppression (cell number by Coulter Counter); type: cell-based; details: H0-1 cells, degree of initial 96 hr growth suppression versus untreated control
Protocol: FIG. 1A-B Effect of continuous exposure to various growth and differentiation modulating agents on the 96-h growth of the human melanoma cell line, H0-1. Cells were seeded at 5×10^4/35-mm tissue culture plate and 24 h later the medium was changed with the indicated compounds. Cell numbers were determined by Coulter Counter after 96-h growth. Further details can be found in Materials and Methods.
The H0-1 cell line is a melanotic melanoma derived from a person and was used between passage 100 and 125 (6,8,13). H0-1 cells were kindly provided by Dr. Beppino C. Giovanella, Stehlin Foundation for Cancer Research, Houston, Tex. Cultures were grown at 37° C. in a 95% air 5% CO2-humidified incubator in Dulbecco's modified Eagle's medium (DMEM) supplemented with 10% fetal bovine serum (DMEM-10) (Hyclone, Logan, Utah). H0-1 cells were maintained in the logarithmic stage of growth by subculturing (1:5 or 1:10) prior to confluency approximately every 4 to 5 days. […] Total cell numbers were determined after days 4, 7, 14, and 21, using a ZM Coulter Counter, and viable cell numbers were determined by trypan blue dye exclusion (6). […] Increases in cell number (two or more population doublings) after removal of the inducing agent(s) was considered reversible growth suppression. […] Conditioned medium was collected from treated cultures, contaminating cells were removed by centrifugation at 1000 rpm/10 min., and conditioned medium was stored at 4° C. until assayed for gene modulatory activity. Control conditioned medium was obtained as experimental conditioned medium from cells receiving only a medium change 24 hours after plating in the absence of test compound(s) and growth for 72 hours in DMEM-10.

[6] = system: mda-7; assay: mda-7 expression (Northern blotting, RT-PCR); type: cell-based, human; details: H0-1; 96 hours; doses of FIG. 15 legend
Protocol: as §1

[7] = system: mda-5; assay: mda-5 expression (Northern blotting); type: cell-based, human; details: H0-1; 96 hours; doses of FIG. 15 legend
Protocol: as §1

[8] = system: mda-8; assay: mda-8 expression (Northern blotting); type: cell-based, human; details: H0-1; 96 hours; doses of FIG. 15 legend
Protocol: as §1

[9] = system: mda-6 (WAF1/CIP1/SDI1); type: cell-based, human; details: HL-525; TPA 3 nM, Vit D3 400 nM, RA 1 μM; 1 to 12 h test period
Protocol: (§2) HL-60 cells were originally provided by Dr. R. C. Gallo (National Cancer Institute, Bethesda, Md.) (Collins et al., 1978; Huberman & Callaham, 1979). HL-60 cells designated HL-525 were derived by cloning HL-60 cells after subculturing 102 times in the presence of increasing concentrations (up to 3 μM) of TPA at 5- to 8-day intervals (Homma et al., 1986; Mitchell et al., 1986). […] Prior to the experiments described in this study, the HL-525 cells were subcultured more than 20 times in the absence of TPA. Cells were grown in 100-mm tissue culture dishes in RPMI 1640 medium supplemented with 20% fetal bovine serum, penicillin (100 units/ml) and streptomycin (100 μg/ml) (Grand Island Biological Co., NY) at 37° C. in an atmosphere of 5% CO2 in air in a humidified incubator. The 1,25-(OH)2D3(Vit D3) and TPA were dissolved in a final concentration of 0.01% DMSO, and all-trans retinoic acid (RA) was dissolved in 0.1% DMSO in culture medium. […] Control cultures were treated with DMSO at a final concentration of 0.1% in culture medium. For experiments designed to test the effect of DMSO on HL-60 and HL-525 cells, DMSO was added to tissue culture medium at a final concentration of 1%. Stock solutions of CHX (10 mg/ml) were prepared in culture medium. CHX was added at a final concentration of 10 μg/ml. To examine a requirement for protein synthesis on mda-6 gene expression, HL-60 or HL-525 cells were seeded into 150 mm Petri dishes (5×10^5 cells/ml) in 30 ml of medium. CHX was added to a final concentration of 10 μg/ml 15 min prior to the addition of TPA to 3 nM. Cells were harvested at various times after addition of TPA for subsequent RNA isolation and analysis.
RNA was purified by centrifugation through a CsC1 cushion as described by Chirgwin et al. (1979). Ten μg of RNA was denatured with glyoxal/DMSO, electrophoresed on 1.0% agarose gels, transferred to nylon membranes, hybridized to a ^32P-labeled mda-6 probe (Jiang and Fisher, 1993) and then after stripping the membrane hybridized to a ^32P-labeled rat GAPDH probe (Fort et al., 1985), as described previously (Reddy et at., 1991; Su et al., 1991; Jiang et al., 1992). Following hybridization, the filters were washed and exposed for autoradiography (Reddy et al., 1991; Su et al., 1991; Jiang et al., 1992). mda-6 and GAPDH gene expression were also determined by reverse transcription-polymerase chain reaction (RT-PCR) as described (Adollahi et al. 1991; Lin et al., 1994). Total cytoplasmic RNA was treated with 0.5 units DNase (Boehringer-Mannheim Biochemicals)/μg RNA in 15% glycerol, 10 mM Tris, pH 7.5, 2.5 mM MgCl2, 0.1 mM EDTA, 80 mM KC1, 1 mM CaCl2 and 1 unit/ml RNasin (Promega) at 30° C. for 10 min. RNA was extracted with phenol-chloroform, precipitated with sodium acetate/ethanol and RNA pellets were resuspended in diethylpyrocarbonate-treated H2O. One μg of total RNA was reverse transcribed with 200 units of murine leukemia virus reverse transcriptase (Bethesda Research Laboratories) in 20 μl containing 1 mM deoxyribonucleotide triphosphates, 4 mM MgCl2, 10 mM Tris, pH 8.3, 50 mM KC1, 0.001% gelatin and 0.2 μg oligo-dT primer. Samples were diluted to 100 μl with buffer containing 0.2 mM deoxyribonucleotide triphosphates, 2 mM MgCl2, 10 mM Tris, pH 8.3, 50 mM KC1 and 0.001% gelatin. […]

[10] = system: HL-525 cells; assay: OKM1 reactivity (immunofluorescence); type: cell-based, human; details: TPA 3 nM, RA 1 μM or Vit D3 400 nM, percent OKM1 positive cells
Protocol: as §2
(§3) Cell counts were determined by hemocytometer chamber counting. Immunofluorescence tests for reactivity with the OKM1 antibody (Ortho Pharmaceutical Corp., Raritan, N.J.) were performed as previously described (Murao et al., 1983).

[11] = system: HL-60 cells; assay: OKM1 reactivity (immunofluorescence); type: cell-based, human; details: TPA 3 nM, RA 1 μM or Vit D3 400 nM, percent OKM1 positive cells
Protocol: as §2, §3

SMILES | mda-4 expression [1] | mda-6 expression [2] | HLA Class I antigen gene expression ([3]; 96 h) | fibronectin expression ([3]; 96 h) | induction of gro/MGSA gene expression ([3]; 96 h) | tenascin expression ([3]; 96 h) | c-jun and jun-B expression ([3]; 96 hours) | c-myc expression ([3]; 96 hours) | mda-9 expression [4] | Growth Suppression (reversible) ([5]; Table 1) | Growth Suppression (reversible) ([5]; Table 2) | mda-7 expression [6] | mda-5 expression [7] | mda-8 expression [8] | time of treatment at which mda-6 expression is induced [9] | OKM1 reactivity, Days of induction 4 [10] | OKM1 reactivity, Days of induction 6 [10] | OKM1 reactivity, Days of induction 4 [11] | OKM1 reactivity, Days of induction 6 [11]
COc1c(C)c2c(c(O)c1C/C=C(\C)CCC(=O)O)C(=O)OC2 [MPA, mycophenolic acid] | No or only a small change in expression | no significant or reduced alteration in expression | did not significantly alter | most effective single agents | did not | enhanced tenascin expression | increase | downregulated | No change in mda-9 expression | 3+ (3+ = ~50 to 60% reduction in growth in comparison with untreated control cultures) | − (− = no significant change in growth (<10% reduction in growth in comparison with untreated control cultures)) | Increased expression; also recorded: induced | No change in expression | No change in expression |  |  |  |  | 
C=C1/C(=C\C=C2/CCC[C@]3(C)[C@@H]([C@H](C)CCCC(C)(C)O)CC[C@@H]23)C[C@@H](O)C[C@@H]1O [Vit D3, 1,25-(OH)2D3] |  |  |  |  |  |  |  |  |  |  |  |  |  |  | ≤ 2 h | 84% | 80% | 88% | 95%
